Among the test systems are IGROV-1; NCI-H23; Malme-3M; SK-MEL-28; COLO 205; EKVX; SW-620; OVCAR-8; RPMI-8226; HL-60; UACC-62; SK-MEL-5; SNB-75; U-251; M14; DU-145; UO-31; SF-539; SR; NCI-H226.
Holding throughout (assay): NCI-60 cell line screen, 48 h

Each structure is given as a SMILES string.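 In this assay, cells in 96-well plates receive the compound at five concentrations for 48 hours. Endpoints are linearly interpolated between the surrounding concentrations. Abbreviation: GI50, concentration required for 50% inhibition of growth.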 Activity calls are given as the source filed them. Rule as the data show it: active = GI50 up to about 1.1 µM and inactive = higher.

Results on ten compounds are retold here after ChEMBL document CHEMBL1201862, “PubChem BioAssay data set” (2004).

Consider `NC1=Nc2ccccc2Sc2nccn21`, for which the GI50 in the experiment with IGROV-1 is 23.9 µM (inactive); in the experiment with NCI-H23 it was 23.9 µM (inactive); in the experiment on Malme-3M, 17.2 µM (inactive); with SK-MEL-28 it was 35.8 µM (inactive); in the experiment with COLO 205, 15.4 µM (inactive); with EKVX it was 27.7 µM (inactive). Moreover, the GI50 with SW-620 was 32.3 µM (inactive); in the experiment on OVCAR-8 it was 31.1 µM (inactive); in the experiment with RPMI-8226, 18.2 µM (inactive); in the experiment on HL-60, 18.7 µM (inactive); with UACC-62, 28.2 µM (inactive); with SK-MEL-5, 16.5 µM (inactive). Further, the GI50 is 17.9 µM (inactive) with SNB-75; 32.8 µM (inactive) in the experiment on U-251; 17 µM (inactive) in the experiment with M14; 37.7 µM (inactive) in the experiment with DU-145; 23.9 µM (inactive) with UO-31; 23.9 µM (inactive) in the experiment on SF-539. The GI50 in the experiment with SR was 26.4 µM (inactive); in the experiment with NCI-H226, 20.9 µM (inactive).

As for `CCOC(=O)C(NNS(=O)(=O)c1ccc(C)cc1)S(=O)(=O)C(F)(F)C(F)(F)C(F)(F)C(F)(F)F` (stereo not drawn), the GI50 with IGROV-1, in the experiment with NCI-H23, with Malme-3M, in the experiment with SK-MEL-28, in the experiment on COLO 205 and in the experiment with EKVX was > 100 µM (inactive) throughout. Further, the GI50 with SW-620, in the experiment on OVCAR-8, in the experiment on RPMI-8226, with HL-60, in the experiment with UACC-62 and in the experiment with SK-MEL-5 was > 100 µM (inactive) in each case. Besides, the GI50 in the experiment on SNB-75 is > 100 µM (inactive); in the experiment on U-251, 88.9 µM (inactive); in the experiment with M14, > 100 µM (inactive); in the experiment with DU-145, > 100 µM (inactive); with UO-31, > 100 µM (inactive); in the experiment on SF-539 it was > 100 µM (inactive). Also, the GI50 in the experiment with SR and with NCI-H226 was > 100 µM (inactive) in each case.

Consider `NS(=O)(=O)c1ccc(NCc2cccc3c(=O)c4ccc(Cl)cc4oc23)cc1`, for which the GI50 with IGROV-1 was 20.2 µM (inactive); with NCI-H23 it was 31.5 µM (inactive); with Malme-3M, 12.3 µM (inactive); in the experiment with SK-MEL-28 it was > 79.8 µM (inactive); in the experiment on COLO 205 it was 55.1 µM (inactive); in the experiment on EKVX, > 33.8 µM (inactive). The GI50 in the experiment with SW-620 was 6.38 µM (inactive); in the experiment on OVCAR-8, 24.2 µM (inactive); in the experiment on RPMI-8226 it was 24 µM (inactive); in the experiment with HL-60, 3.68 µM (inactive); in the experiment on UACC-62, 23.1 µM (inactive); in the experiment on SK-MEL-5, 59.4 µM (inactive). For the same compound, the GI50 is 37.8 µM (inactive) in the experiment with SNB-75; 23.8 µM (inactive) in the experiment on U-251; 27.8 µM (inactive) in the experiment with M14; 30.3 µM (inactive) in the experiment with DU-145; 25.5 µM (inactive) in the experiment on UO-31; 14.2 µM (inactive) in the experiment with SF-539. Further, the GI50 was 4.68 µM (inactive) in the experiment on SR and > 76.7 µM (inactive) with NCI-H226.

For the compound `CC1(C)OCC2OC3(c4nc(C#N)c(N)o4)OC(C)(C)OC3C2O1` (stereo not drawn), the GI50 in the experiment on IGROV-1, in the experiment on NCI-H23, in the experiment with Malme-3M, with SK-MEL-28, in the experiment on COLO 205 and in the experiment with EKVX was > 100 µM (inactive) in each case. The GI50 with SW-620, in the experiment on OVCAR-8, with RPMI-8226, in the experiment on HL-60, in the experiment on UACC-62 and in the experiment with SK-MEL-5 was > 100 µM (inactive) in each case. Also, the GI50 with SNB-75, with U-251, in the experiment with M14, in the experiment on DU-145, with UO-31 and in the experiment with SF-539 was > 100 µM (inactive) in each case. In addition, the GI50 with SR and in the experiment on NCI-H226 was > 100 µM (inactive) each time.

With `O=c1[nH]c2cc(Cl)ccc2nc1/C(=N/Nc1ccccc1)C(O)c1ccco1` (stereo not drawn), the GI50 with IGROV-1, with NCI-H23, with Malme-3M, in the experiment on SK-MEL-28, with COLO 205 and in the experiment with EKVX was > 100 µM (inactive) each time. Also, the GI50 in the experiment with SW-620, with OVCAR-8, in the experiment with RPMI-8226, in the experiment with HL-60, in the experiment on UACC-62 and in the experiment on SK-MEL-5 was > 100 µM (inactive) throughout. Also, the GI50 with SNB-75, with U-251, in the experiment with M14, with DU-145, in the experiment with UO-31 and in the experiment on SF-539 was > 100 µM (inactive) throughout. The GI50 in the experiment on SR and in the experiment with NCI-H226 was > 100 µM (inactive) throughout.

With `CC(C)CC(N)C(=O)Nc1ccc2ccccc2c1` (stereo not drawn), the GI50 in the experiment on IGROV-1, in the experiment with NCI-H23, with Malme-3M, in the experiment on SK-MEL-28, in the experiment on COLO 205 and in the experiment on EKVX was > 100 µM (inactive) each time. The GI50 is > 100 µM (inactive) with SW-620; > 100 µM (inactive) in the experiment on OVCAR-8; > 100 µM (inactive) with RPMI-8226; 98.2 µM (inactive) in the experiment with HL-60; > 100 µM (inactive) in the experiment with UACC-62; > 100 µM (inactive) with SK-MEL-5. For the same compound, the GI50 in the experiment on SNB-75, in the experiment on U-251, with M14, in the experiment with DU-145, in the experiment on UO-31 and in the experiment on SF-539 was > 100 µM (inactive) in each case. The figures for the GI50 in the experiment with SR and with NCI-H226 were > 100 µM (inactive) and 67.8 µM (inactive), respectively.

With `C[C@H]1CC[C@]2(NC1)O[C@H]1C[C@H]3[C@@H]4CC[C@H]5C[C@@H](O[C@@H]6O[C@H](CO)[C@H](O[C@@H]7O[C@H](CO)[C@@H](O)[C@H](O[C@@H]8OC[C@@H](O)[C@H](O)[C@H]8O)[C@H]7O[C@@H]7O[C@H](CO)[C@@H](O)[C@H](O)[C@H]7O)[C@H](O)[C@H]6O)CC[C@]5(C)[C@H]4CC[C@]3(C)[C@H]1[C@@H]2C` [TOMATINE], the GI50 in the experiment on IGROV-1 is 0.729 µM (active); in the experiment with NCI-H23, 1.65 µM (inactive); in the experiment with Malme-3M, 0.605 µM (active); with SK-MEL-28, 1.26 µM (inactive); in the experiment with COLO 205 it was 2 µM (inactive); in the experiment on EKVX it was 0.836 µM (active). Also, the GI50 in the experiment with SW-620 was 2.04 µM (inactive); in the experiment with OVCAR-8, 2.24 µM (inactive); in the experiment on RPMI-8226 it was 0.766 µM (active); with HL-60 it was 2.48 µM (inactive); with UACC-62, 1.01 µM (active); with SK-MEL-5 it was 2.23 µM (inactive). Also, the GI50 was 1.86 µM (inactive) with SNB-75; 1.02 µM (active) in the experiment on U-251; 1.43 µM (inactive) in the experiment on M14; 1.64 µM (inactive) in the experiment on DU-145; 1.42 µM (inactive) with UO-31; 1.56 µM (inactive) in the experiment with SF-539. The figures for the GI50 in the experiment on SR and in the experiment with NCI-H226 were 2.42 µM (inactive) and 1.95 µM (inactive), respectively.

As to `COc1ccc(C(=O)c2c(-c3ccccc3NC(=O)C(F)(F)F)[nH]c3ccccc23)cc1`, the GI50 in the experiment on IGROV-1 is 10.6 µM (inactive); with NCI-H23, 11.7 µM (inactive); in the experiment on Malme-3M, 14.4 µM (inactive); in the experiment on SK-MEL-28 it was 13.6 µM (inactive); with COLO 205, 4.05 µM (inactive); in the experiment on EKVX, 11.8 µM (inactive). Moreover, the GI50 in the experiment on SW-620 is 4.06 µM (inactive); with OVCAR-8 it was 6.19 µM (inactive); in the experiment with RPMI-8226, 4.8 µM (inactive); in the experiment on HL-60 it was 2.42 µM (inactive); with UACC-62, 12.1 µM (inactive); with SK-MEL-5, 8.95 µM (inactive). Further, the GI50 in the experiment on SNB-75 is 2.47 µM (inactive); in the experiment on U-251, 2.56 µM (inactive); with M14, 14.3 µM (inactive); in the experiment with DU-145, 5.18 µM (inactive); in the experiment on UO-31, 5.05 µM (inactive); with SF-539 it was 1.94 µM (inactive). Moreover, the GI50 with SR was 2.81 µM (inactive); with NCI-H226 it was 14.7 µM (inactive).

For the compound `COC(=O)c1c(O)ccc2c1c1c(n2Cc2ccc(Cl)cc2Cl)C(=O)c2ccccc2C1`, the GI50 with IGROV-1 was 50.8 µM (inactive); in the experiment with NCI-H23 it was 60 µM (inactive); with Malme-3M, 97.7 µM (inactive); in the experiment with SK-MEL-28, 45.2 µM (inactive); in the experiment with COLO 205, 45.7 µM (inactive); with SW-620, 57 µM (inactive). The GI50 was 37.8 µM (inactive) in the experiment on OVCAR-8; 19.7 µM (inactive) in the experiment with RPMI-8226; > 100 µM (inactive) in the experiment on HL-60; > 100 µM (inactive) in the experiment with UACC-62; 89.5 µM (inactive) in the experiment with SK-MEL-5; 20 µM (inactive) with SNB-75. Moreover, the GI50 in the experiment on U-251 was 38 µM (inactive); with M14, 89.1 µM (inactive); in the experiment on DU-145, > 100 µM (inactive); with UO-31, 97.9 µM (inactive); in the experiment with SF-539, 54.5 µM (inactive); in the experiment with SR, 36.3 µM (inactive). Further, in the experiment with NCI-H226, the GI50 is 27.6 µM (inactive).

Turning to `N#C/C(=C\c1ccc(Cl)cc1)c1nc(-c2cc3ccccc3oc2=O)cs1`, the GI50 with IGROV-1 is > 100 µM (inactive); with Malme-3M, 41.7 µM (inactive); with SK-MEL-28, 95.9 µM (inactive); in the experiment with COLO 205 it was > 100 µM (inactive); with EKVX it was > 100 µM (inactive); in the experiment on SW-620, > 100 µM (inactive). Besides, the GI50 with OVCAR-8 was 49.2 µM (inactive); with RPMI-8226, > 100 µM (inactive); in the experiment with HL-60, > 100 µM (inactive); in the experiment on UACC-62 it was 28.9 µM (inactive); in the experiment with SK-MEL-5 it was 90.4 µM (inactive); in the experiment on SNB-75 it was 26.9 µM (inactive). The GI50 in the experiment with U-251 was 30.8 µM (inactive); in the experiment with M14 it was 51.5 µM (inactive); in the experiment on DU-145, 48.5 µM (inactive); with UO-31 it was 80.7 µM (inactive); with SF-539, 39.8 µM (inactive); in the experiment with SR, > 100 µM (inactive). The GI50 in the experiment with NCI-H226 was 39 µM (inactive).
